Results taken from patent US10959925B2, “Hair cosmetic composition” (KAO CORPORATION, priority 2016, dated 2021).

Experiment: physchem

## CC1COC(=O)O1 (stereo not shown) [propylene carbonate]
  logP: -0.41
